Data taken from patent publication US20050197350A1, “Novel quinoline, tetrahydroquinazoline, and pyrimidine derivatives and methods of treatment related to the use thereof” (TAISHO PHARMACEUTICAL CO., LTD., priority 2003, published 2005).

system: MCH receptors; assay: MCH receptor activity class (method not given); conditions: class by percent of control at 10^-7 M or IC50

SMILES | class
CN(C)c1cc(N[C@H]2CC[C@@H](NC(=O)[C@H](CCCCNC(=O)c3ccccc3)NC(=O)c3ccccc3)CC2)nc2ccccc12 (relative stereo) [compound 704] | 3 (Class 3 The value of percent of control at 10^−7 M was more than 60% or the value of IC50 was more than 200 nM.)
CC(C(=O)N[C@H]1CC[C@@H](Nc2cc(N(C)C)c3ccccc3n2)CC1)c1ccc(-c2ccccc2)c(F)c1 (relative stereo) [compound 708] | 3 (Class 3 The value of percent of control at 10^−7 M was more than 60% or the value of IC50 was more than 200 nM.)
CC(C(=O)N[C@H]1CC[C@@H](Nc2cc(N(C)C)c3ccccc3n2)CC1)c1ccc(N2Cc3ccccc3C2=O)cc1 (relative stereo) [compound 710] | 3 (Class 3 The value of percent of control at 10^−7 M was more than 60% or the value of IC50 was more than 200 nM.)
COc1ccc2c(c1)C(CC(=O)N[C@H]1CC[C@@H](Nc3cc(N(C)C)c4ccccc4n3)CC1)CC2=O (relative stereo) [compound 713] | 3 (Class 3 The value of percent of control at 10^−7 M was more than 60% or the value of IC50 was more than 200 nM.)
CN(C)c1cc(N[C@H]2CC[C@@H](NC(=O)C(CC(=O)c3ccccc3)c3c[nH]c4ccccc34)CC2)nc2ccccc12 (relative stereo) [compound 716, N-(cis-4-{[4-(dimethylamino)quinolin-2-yl]amino}cyclohexyl)-2-(1H-indol-3-yl)-4-oxo-4-phenylbutanamide] | 2 (Class 2: The value of percent of control at 10^−7 M was from 40% to 60% or the value of IC′50 was from 50 nM to 200 nM.)
CN(C)c1cc(N[C@H]2CC[C@@H](NC(=O)C(CC(=O)c3ccc(Br)cc3)c3c[nH]c4ccccc34)CC2)nc2ccccc12 (relative stereo) [compound 717] | 3 (Class 3 The value of percent of control at 10^−7 M was more than 60% or the value of IC50 was more than 200 nM.)
CCc1cccc2c(C(CC(=O)c3ccc(C(C)(C)C)cc3)C(=O)N[C@H]3CC[C@@H](Nc4cc(N(C)C)c5ccccc5n4)CC3)c[nH]c12 (relative stereo) [compound 720] | 3 (Class 3 The value of percent of control at 10^−7 M was more than 60% or the value of IC50 was more than 200 nM.)
CN(C)c1cc(N[C@H]2CC[C@@H](NC(=O)C(CC(=O)c3ccc(C(C)(C)C)cc3)c3cn(C)c4ccccc34)CC2)nc2ccccc12 (relative stereo) [compound 721] | 3 (Class 3 The value of percent of control at 10^−7 M was more than 60% or the value of IC50 was more than 200 nM.)
Cc1ccc(C(=O)CC(C(=O)N[C@H]2CC[C@@H](Nc3cc(N(C)C)c4ccccc4n3)CC2)c2cn(C)c3ccccc23)cc1 (relative stereo) [compound 722] | 3 (Class 3 The value of percent of control at 10^−7 M was more than 60% or the value of IC50 was more than 200 nM.)
CCCN(CCC)C(=O)[C@H](CCC(=O)N[C@H]1CC[C@@H](Nc2cc(N(C)C)c3ccccc3n2)CC1)NC(=O)c1ccccc1 (relative stereo) [compound 730] | 3 (Class 3 The value of percent of control at 10^−7 M was more than 60% or the value of IC50 was more than 200 nM.)
CN(C)c1cc(N[C@H]2CC[C@@H](NC(=O)C(CC(=O)c3ccc(Cl)cc3)SCc3ccc(Cl)cc3)CC2)nc2ccccc12 (relative stereo) [compound 741] | 3 (Class 3 The value of percent of control at 10^−7 M was more than 60% or the value of IC50 was more than 200 nM.)
Cc1ccc(C(=O)CC(SCc2ccc(Cl)cc2)C(=O)N[C@H]2CC[C@@H](Nc3cc(N(C)C)c4ccccc4n3)CC2)cc1 (relative stereo) [compound 742] | 3 (Class 3 The value of percent of control at 10^−7 M was more than 60% or the value of IC50 was more than 200 nM.)
CC1=C(CC(=O)N[C@H]2CC[C@@H](Nc3cc(N(C)C)c4ccccc4n3)CC2)c2cc(F)ccc2/C1=C/c1ccc([S+](C)[O-])cc1 (relative stereo) [compound 743] | 3 (Class 3 The value of percent of control at 10^−7 M was more than 60% or the value of IC50 was more than 200 nM.)
CC(C(=O)N[C@H]1CC[C@@H](Nc2cc(N(C)C)c3ccccc3n2)CC1)c1ccc(C(=O)c2cccs2)cc1 (relative stereo) [compound 744] | 3 (Class 3 The value of percent of control at 10^−7 M was more than 60% or the value of IC50 was more than 200 nM.)
COC(C(=O)N[C@H]1CC[C@@H](Nc2cc(N(C)C)c3ccccc3n2)CC1)c1ccccc1 (relative stereo) [compound 777] | 3 (Class 3 The value of percent of control at 10^−7 M was more than 60% or the value of IC50 was more than 200 nM.)
CN(C)c1cc(N[C@H]2CC[C@@H](NC(=O)C3CCc4ccccc4C3)CC2)nc2ccccc12 (relative stereo) [compound 778] | 3 (Class 3 The value of percent of control at 10^−7 M was more than 60% or the value of IC50 was more than 200 nM.)
CN(C)c1cc(N[C@H]2CC[C@@H](CNC(=O)C(Cc3ccccc3)c3ccccc3)CC2)nc2ccccc12 (relative stereo) [compound 793] | 3 (Class 3 The value of percent of control at 10^−7 M was more than 60% or the value of IC50 was more than 200 nM.)

SMILES | class
CN(C)c1cc(N[C@H]2CC[C@@H](CNC(=O)C3CC(=O)c4ccccc43)CC2)nc2ccccc12 (relative stereo) [compound 798] | 3 (Class 3 The value of percent of control at 10^−7 M was more than 60% or the value of IC50 was more than 200 nM.)
CCOc1ccc(C(=O)CC(C(=O)NC[C@H]2CC[C@@H](Nc3cc(N(C)C)c4ccccc4n3)CC2)C2C(=O)N(c3ccccc3)N=C2C)cc1 (relative stereo) [compound 807] | 3 (Class 3 The value of percent of control at 10^−7 M was more than 60% or the value of IC50 was more than 200 nM.)
CN(C)c1ccnc(N[C@H]2CC[C@@H](NC(=O)C(Cc3ccccc3)c3ccccc3)CC2)n1 (relative stereo) [compound 817] | 3 (Class 3 The value of percent of control at 10^−7 M was more than 60% or the value of IC50 was more than 200 nM.)
CN(C)c1ccnc(N[C@H]2CC[C@@H](NC(=O)C3CC(=O)c4ccccc43)CC2)n1 (relative stereo) [compound 823] | 3 (Class 3 The value of percent of control at 10^−7 M was more than 60% or the value of IC50 was more than 200 nM.)
CN(C)c1ccnc(N[C@H]2CC[C@@H](NC(=O)[C@H](CCCCNC(=O)c3ccccc3)NC(=O)c3ccccc3)CC2)n1 (relative stereo) [compound 843] | 2 (Class 2: The value of percent of control at 10^−7 M was from 40% to 60% or the value of IC′50 was from 50 nM to 200 nM.)
CC(C(=O)N[C@H]1CC[C@@H](Nc2nccc(N(C)C)n2)CC1)c1ccc(-c2ccccc2)c(F)c1 (relative stereo) [compound 847] | 3 (Class 3 The value of percent of control at 10^−7 M was more than 60% or the value of IC50 was more than 200 nM.)
CC(C(=O)N[C@H]1CC[C@@H](Nc2nccc(N(C)C)n2)CC1)c1ccc(N2Cc3ccccc3C2=O)cc1 (relative stereo) [compound 849] | 3 (Class 3 The value of percent of control at 10^−7 M was more than 60% or the value of IC50 was more than 200 nM.)
COc1ccc2c(c1)C(CC(=O)N[C@H]1CC[C@@H](Nc3nccc(N(C)C)n3)CC1)CC2=O (relative stereo) [compound 852] | 3 (Class 3 The value of percent of control at 10^−7 M was more than 60% or the value of IC50 was more than 200 nM.)
CN(C)c1ccnc(N[C@H]2CC[C@@H](NC(=O)C(CC(=O)c3ccccc3)c3c[nH]c4ccccc34)CC2)n1 (relative stereo) [compound 855, N-(cis-4-{[4-(dimethylamino)pyrimidin-2-yl]amino}cyclohexyl)-2-(1H-indol-3-yl)-4-oxo-4-phenylbutanamide] | 1 (Class 1: The value of percent of control at 10^−7 M was less than 40% or the value of IC50 was less than 50 nM.)
CN(C)c1ccnc(N[C@H]2CC[C@@H](NC(=O)C(CC(=O)c3ccc(Br)cc3)c3c[nH]c4ccccc34)CC2)n1 (relative stereo) [compound 856] | 2 (Class 2: The value of percent of control at 10^−7 M was from 40% to 60% or the value of IC′50 was from 50 nM to 200 nM.)
CCc1cccc2c(C(CC(=O)c3ccc(C(C)(C)C)cc3)C(=O)N[C@H]3CC[C@@H](Nc4nccc(N(C)C)n4)CC3)c[nH]c12 (relative stereo) [compound 860] | 3 (Class 3 The value of percent of control at 10^−7 M was more than 60% or the value of IC50 was more than 200 nM.)
CN(C)c1ccnc(N[C@H]2CC[C@@H](NC(=O)C(CC(=O)c3ccc(C(C)(C)C)cc3)c3cn(C)c4ccccc34)CC2)n1 (relative stereo) [compound 861] | 3 (Class 3 The value of percent of control at 10^−7 M was more than 60% or the value of IC50 was more than 200 nM.)
Cc1ccc(C(=O)CC(C(=O)N[C@H]2CC[C@@H](Nc3nccc(N(C)C)n3)CC2)c2cn(C)c3ccccc23)cc1 (relative stereo) [compound 862, N-(cis-4-{[4-(dimethylamino)pyrimidin-2-yl]amino}cyclohexyl)-2-(1-methyl-1H-indol-3-yl)-4-(4-methylphenyl)-4-oxobutanamide] | 1 (Class 1: The value of percent of control at 10^−7 M was less than 40% or the value of IC50 was less than 50 nM.)
CCCN(CCC)C(=O)[C@H](CCC(=O)N[C@H]1CC[C@@H](Nc2nccc(N(C)C)n2)CC1)NC(=O)c1ccccc1 (relative stereo) [compound 870] | 2 (Class 2: The value of percent of control at 10^−7 M was from 40% to 60% or the value of IC′50 was from 50 nM to 200 nM.)
CN(C)c1ccnc(N[C@H]2CC[C@@H](NC(=O)C(CC(=O)c3ccc(Cl)cc3)SCc3ccc(Cl)cc3)CC2)n1 (relative stereo) [compound 881] | 3 (Class 3 The value of percent of control at 10^−7 M was more than 60% or the value of IC50 was more than 200 nM.)
Cc1ccc(C(=O)CC(SCc2ccc(Cl)cc2)C(=O)N[C@H]2CC[C@@H](Nc3nccc(N(C)C)n3)CC2)cc1 (relative stereo) [compound 882] | 3 (Class 3 The value of percent of control at 10^−7 M was more than 60% or the value of IC50 was more than 200 nM.)
